Test results as given in publication PMC7771325 (Journal of medicinal chemistry, 2020).

Assay: Aqueous solubility
Format: physicochemical
Details: resisted cocrystallization attempts

aqueous solubility: low aqueous solubility
Compound: Cn1cc(-c2[nH]c3cc(NC(=O)[C@H](N)C4CCCCC4)cc4c3c2C=NNC4=O)cn1 [PF-477736]
